The record followed here is patent US4810636A, “Chromogenic acridinone enzyme substrates” (Miles Inc., priority 1987, dated 1989).

Structures are written as SMILES. Several values for one entry are separate records, joined by “and”; a condition that tells them apart may be missing. Equal values may be shown once.

What all share (assay type): biochemical
For assay [1], the system named is alkaline phosphatase. The assay is described as follows: Hydrolysis of the phosphate substrate by alkaline phosphatase (KM, Kcat). The settings on record: 1.0M diethanolamine buffer (pH=9.8) containing 5.0 mM MgCl2.
For assay [2], the system named is α-amylase. The assay is described as follows: Liquid analytical test system for the detection of α-amylase. As to conditions: for Absorbance (634 nm): 37° C.; for Absorbance/Minute: average of three consecutive readings between 3 and 6 minutes. Here is the method:
A liquid α-amylase detection reagent was prepared by combining 1.8 mM DMA-G7 (43) prepared according to Example 9, 38 units of α-glucosidase and 20 units of β-glucosidase in 1.0 mL of buffered solution comprising 50 mM PIPES, 50 mM NaCl, and 5.0 mM calcium chloride (pH 7.0). Amylase control serum (0.025 mL) containing 37 IU/L, 175 IU/L, and 313 IU/L, respectively, of α-amylase were added to the detection reagent, independently, and incubated at 37° C. The enzymatic action of α-amylase on the substrate compound in each of the mixtures liberated shorter chain chromogenic maltooligosaccharide compounds thereof (e.g., DMA-G2 to DMA-G4) which, in turn, was enzymatically acted upon by the α-glucosidase and β-glucosidaseto liberate the optically active form of the dimethyl acridinone chromogen (20). The rate of color change produced by the liberated chromogen in each of the mixtures was measured at 634 nm on a Cary 219 spectrophotometer (Varian Associates, Inc., Sonnyvale, Calif., U.S.A.) from between 1 and 9 minutes after each of the serum samples were added to the detection reagent (Table 2).

Assay [3] relates to α-amylase. The experiment in a line: Analytical test device for the detection of α-amylase, reflectance. The settings on record: for Reactivity × 10^-2: linear regression of L(R) between 180 and 200 seconds, 630 nm. Here is the method:
A sheet of Whatman 54 filter paper (Whatman, Inc., Clifton, N.J., U.S.A.) was immersed into a solution comprising the liquid α-amylase detection reagent prepared according to Example 10, 0.1% Triton X-100 (Sigma Chemical Co., St. Louis, Mo., U.S.A.) and 0.5% carboxycellulose, and dried.
Analytical test devices were prepared by mounting 0.5 cm wide×1.0 cm long segment of the aforementioned impregnated filter paper onto and along the edge of one surface of 0.5 cm×8.125 cm polystyrene supports (Tricite®, Dow Chemical Co., Midland, Mich., U.S.A.) previously laminated with a 2 mm strip of Double Stick® double-faced adhesive tape (3M Company, St. Paul, Minn., U.S.A.).
Three 30 μL aliquots of undiluted serum containing 39 IU/L, 78 IU/L, 117 IU/L, 157 IU/L, 235 IU/L, and 313 IU/L, respectively, of α-amylase were applied, independently, to a test device and the rate of color change produced by the liberated chromogen on each device was measured at 630 nm on a Seralyzer® reflectance photometer (Miles Inc., Elkhart, Ind., U.S.A.) from between 0 seconds and 240 seconds after the serum sample was added to each test device.

For `CC1(C)C2=CC(=O)C=CC2=Nc2ccc(OP(=O)(O)O)cc21` [Compound 37, disodium-9,9-dimethyl-9H-acridin-2-one-7-phosphate], in assay [1], the Kcat is reported as 1.94×10^5 mol/min/mol of enzyme and the Km stood at 480 µM.

With `CC1(C)C2=CC(=O)C=CC2=Nc2ccc(O[C@@H]3O[C@H](CO)[C@@H](O[C@H]4O[C@H](CO)[C@@H](O[C@H]5O[C@H](CO)[C@@H](O[C@H]6O[C@H](CO)[C@@H](O[C@H]7O[C@H](CO)[C@@H](O[C@H]8O[C@H](CO)[C@@H](O[C@H]9O[C@H](CO)[C@@H](O)[C@H](O)[C@H]9O)[C@H](O)[C@H]8O)[C@H](O)[C@H]7O)[C@H](O)[C@H]6O)[C@H](O)[C@H]5O)[C@H](O)[C@H]4O)[C@H](O)[C@H]3O)cc21` [DMA-G7, 7-β-maltoheptaosyloxy-9,9-dimethyl-acridin-2-one], the “dose response to the α-amylase concentration” value in assay [2] (37-313 IU/L, readings between 3 and 6 minutes) is recorded as “linear dose response”. The “Absorbance (634 nm)” value came to 0.123 in assay [2] (37 IU/L α-amylase, 1 minute); 0.129 in assay [2] (37 IU/L α-amylase, 2 minutes); 0.138 in assay [2] (37 IU/L α-amylase, 3 minutes); 0.148 in assay [2] (37 IU/L α-amylase, 4 minutes); 0.160 in assay [2] (37 IU/L α-amylase, 5 minutes); 0.172 in assay [2] (37 IU/L α-amylase, 6 minutes). The “Absorbance (634 nm)” value came out at 0.187 in assay [2] (37 IU/L α-amylase, 7 minutes); 0.202 in assay [2] (37 IU/L α-amylase, 8 minutes); 0.218 in assay [2] (37 IU/L α-amylase, 9 minutes); 0.150 in assay [2] (175 IU/L α-amylase, 1 minute); 0.178 in assay [2] (175 IU/L α-amylase, 2 minutes); 0.223 in assay [2] (175 IU/L α-amylase, 3 minutes). The “Absorbance (634 nm)” value in assay [2] (175 IU/L α-amylase, 4 minutes) worked out at 0.279; in assay [2] (175 IU/L α-amylase, 5 minutes) it was 0.341; in assay [2] (175 IU/L α-amylase, 6 minutes), 0.409; in assay [2] (175 IU/L α-amylase, 7 minutes) it was 0.481; in assay [2] (175 IU/L α-amylase, 8 minutes), 0.555; in assay [2] (175 IU/L α-amylase, 9 minutes), 0.631. Also, the “Absorbance (634 nm)” value in assay [2] (313 IU/L α-amylase, 1 minute) is given as 0.171; in assay [2] (313 IU/L α-amylase, 2 minutes), 0.212; in assay [2] (313 IU/L α-amylase, 3 minutes) it was 0.282; in assay [2] (313 IU/L α-amylase, 4 minutes), 0.372; in assay [2] (313 IU/L α-amylase, 5 minutes) it was 0.474; in assay [2] (313 IU/L α-amylase, 6 minutes) it was 0.585. Besides, the “Absorbance (634 nm)” value came out at 0.702 in assay [2] (313 IU/L α-amylase, 7 minutes); 0.823 in assay [2] (313 IU/L α-amylase, 8 minutes); 0.948 in assay [2] (313 IU/L α-amylase, 9 minutes). In addition, the Absorbance/Minute in assay [2] (37 IU/L α-amylase) was 0.011; in assay [2] (175 IU/L α-amylase), 0.062; in assay [2] (313 IU/L α-amylase), 0.109. The “dose response to α-amylase” value in assay [3] (39-313 IU/L α-amylase in undiluted serum) is “linear dose response”. For the same compound, the “Reactivity × 10^-2” value in assay [3] (39 IU/L α-amylase serum) is 0.384 × 10^-2 and 0.373 × 10^-2 and 0.359 × 10^-2; in assay [3] (78 IU/L α-amylase serum), 0.957 × 10^-2 and 0.941 × 10^-2 and 0.954 × 10^-2; in assay [3] (117 IU/L α-amylase serum), 1.450 × 10^-2 and 1.510 × 10^-2 and 1.430 × 10^-2; in assay [3] (157 IU/L α-amylase serum), 1.781 × 10^-2 and 1.999 × 10^-2 and 1.886 × 10^-2; in assay [3] (235 IU/L α-amylase serum) it was 2.560 × 10^-2 and 2.596 × 10^-2 and 2.610 × 10^-2; in assay [3] (313 IU/L α-amylase serum) it was 2.961 × 10^-2 and 2.989 × 10^-2 and 2.916 × 10^-2.
